Structures can show the parent of a compound that is named as a salt. Where two headings read alike, the source gives them in different places.
Experiments:
[1] = system: MERS-CoV; type: cell-based, MERS-CoV Jordan strain (Hu/Jordan-N3/2012)
[2] = system: MERS-CoV and SARS-CoV; conditions: cited from earlier work
[3] = system: MERS-CoV; type: cell-based, MERS-CoV Jordan strain (Hu/Jordan-N3/2012); remark: listed apart in the source
[4] = system: MERS-CoV; type: cell-based, MERS-CoV Jordan strain (Hu/Jordan-N3/2012); remark: listed apart in the source
[5] = system: MERS-CoV; conditions: cited from earlier work
[6] = system: immature MDDCs
[7] = in vitro; conditions: human
[8] = system: Huh 7 cells; conditions: cited from earlier work
[9] = system: Vero E6 cells; conditions: cited from earlier work
[10] = system: MERS-CoV; conditions: read-out: EC50, MERS-CoV infection; cited from earlier work
[11] = system: MERS-CoV; assay: microbe, parasite or virus in culture; type: cell-based, MERS-CoV Jordan strain (Hu/Jordan-N3/2012); conditions: for EC50: Middle East respiratory syndrome-related coronavirus
[12] = system: SARS-CoV; conditions: cited from earlier work

| SMILES | virus yield reduction (TCID50) [1] | toxicity (in words) [2] | activity against MERS-CoV infection by virus yield reduction (in words) [3] | virus yield reduction (TCID50) [4] | EC50 [5] | cytotoxicity (in words) [6] | CC50 [7] | CC50 [8] | cytotoxicity (in words) [9] | virus yield reduction (TCID50), drop [3] | EC50 [10] | selectivity index (SI = CC50÷EC50) [11] | EC50 ([11]; read-out: EC50, antiviral activity against MERS-CoV) | EC50 [12] | EC50, antiviral activity against MERS-CoV [11] | EC50 [11] |
| --- | --- | --- | --- | --- | --- | --- | --- | --- | --- | --- | --- | --- | --- | --- | --- | --- |
| CCN(CC)CCCC(C)Nc1ccnc2cc(Cl)ccc12 (stereo not drawn) [CQ, chloroquine diphosphate salt] | no virus yield reduction | low toxicity | not active | no virus yield reduction | 6.3 µM |  |  |  |  |  |  |  |  |  |  |  |
| CN(C)CCCN1c2ccccc2Sc2ccc(Cl)cc21 [CPZ, Chlorpromazine hydrochloride] | ~2 log10 |  | active | ~2 log10 | 9.5 µM | high cytotoxicity | 25.6 µM | 21.3 µM | low cytotoxicity | 3.1 log10 | 4.9 µM | 1.9 | 13.6 µM |  |  |  |
| CN(C)CCOc1ccc(/C(=C(/CCCl)c2ccccc2)c2ccccc2)cc1 [TOMF, Toremifene citrate] | 1–1.5 log10 |  | not active | 1–1.5 log10 |  |  | 22.5 µM |  |  |  |  |  |  | 12 µM | too low to determine an EC50 | 38 µM |

Reference: publication PMC5864050 (PLoS ONE, 2018)
